The data set in a line: Morphology and size distribution by SEM. The data set is classed as physicochemical. The conditions noted are these: cryomilled at −196° C. The method, then: For morphology and size distribution analysis, microspheres were coated with 40 nm of gold using a sputter coater (Desk II, Denton Vacuum Inc., Hill, N.J., USA) for 120 seconds. Secondary electron micrographs were taken by a Hitachi S-3200N Variable Pressure SEM (Hitachi High-Technologies Corp., Tokyo, Japan). The applied accelerating voltage was 15 kV. For size distribution measurements, the diameter of at least 500 particles was measured and analyzed with ImageJ software (see, e.g., C. A. Schneider, W. S. Rasband, K. W. Eliceiri, NIH Image to ImageJ: 25 years of image analysis, Nature Methods. 9 (2012) 671-675). For cross-sectional images, the microspheres were cut using a razor-blade on a glass slide prior to coating with gold for the SEM analysis.

Some results are limits rather than exact numbers.

As to `CC(=O)N[C@@H](C(=O)O)C(C)(C)SN=O` [SNAP, S-nitroso-N-acetyl-D-penicillamine], the “particle dimensions after micronization” value is under 25 μm.

The record behind these values is US11439609B2, “Nitric oxide releasing PLGA microspheres for biomedical applications” (THE REGENTS OF THE UNIVERSITY OF MICHIGAN, priority 2015, dated 2022).
